Measured values from patent US20100092526A1, “NANOEMULSION THERAPEUTIC COMPOSITIONS AND METHODS OF USING THE SAME” (NanoBio Corporation, priority 2008, published 2010).
Converted amounts (≈) assume the structure as drawn. Where two headings read alike, the source gives them in different places.

Legend:
Pseudomonas aeruginosa = experiment: MIC/MBC against CF isolates (CLSI, alamar blue); conditions: Pseudomonas aeruginosa
Acinetobacter baumannii = experiment: MIC/MBC of nanoemulsions against gram-negative isolates (CLSI, alamar blue); format: cell-based; conditions: Acinetobacter baumannii (n = 5)
[1] = system: Stenotrophomonas maltophilia; experiment: as above; format: cell-based; conditions: Stenotrophomonas maltophilia (n = 5)
Burkholderia cenocepacia = experiment: MIC/MBC against CF isolates (CLSI, alamar blue); conditions: Burkholderia cenocepacia
[2] = nanoemulsions in the presence of 5 mM EDTA

SMILES: C[C@H]1COc2c(N3CCN(C)CC3)c(F)cc3c(=O)c(C(=O)O)cn1c23 [Levofloxacin]
- MIC50 (Pseudomonas aeruginosa): 0.5 µg/mL (≈ 1.38 µM)
- MIC90 (Pseudomonas aeruginosa): 8 µg/mL (≈ 22.1 µM)
- MBC (Pseudomonas aeruginosa; CF Pseudomonas isolate NB1): 1 µg/mL (≈ 2.77 µM)
- MIC (Pseudomonas aeruginosa; CF Pseudomonas isolate NB1): 0.5 µg/mL (≈ 1.38 µM)
- MBC (Pseudomonas aeruginosa; CF Pseudomonas isolate NB2): 0.5 µg/mL (≈ 1.38 µM)
- MIC (Pseudomonas aeruginosa; CF Pseudomonas isolate NB2): 0.5 µg/mL (≈ 1.38 µM)
- MBC (Pseudomonas aeruginosa; CF Pseudomonas isolate NB3): 0.5 µg/mL (≈ 1.38 µM)
- MIC (Pseudomonas aeruginosa; CF Pseudomonas isolate NB3): 0.25 µg/mL (≈ 0.692 µM)
- MBC (Pseudomonas aeruginosa; CF Pseudomonas isolate NB4): 0.5 µg/mL (≈ 1.38 µM)
- MIC (Pseudomonas aeruginosa; CF Pseudomonas isolate NB4): 0.25 µg/mL (≈ 0.692 µM)
- MBC (Pseudomonas aeruginosa; CF Pseudomonas isolate NB5): 1 µg/mL (≈ 2.77 µM)
- MIC (Pseudomonas aeruginosa; CF Pseudomonas isolate NB5): 0.5 µg/mL (≈ 1.38 µM)
- MBC (Pseudomonas aeruginosa; CF Pseudomonas isolate NB6): 1 µg/mL (≈ 2.77 µM)
- MIC (Pseudomonas aeruginosa; CF Pseudomonas isolate NB6): 0.5 µg/mL (≈ 1.38 µM)
- MBC (Pseudomonas aeruginosa; CF Pseudomonas isolate NB7): 1 µg/mL (≈ 2.77 µM)
- MIC (Pseudomonas aeruginosa; CF Pseudomonas isolate NB7): 0.5 µg/mL (≈ 1.38 µM)
- MBC (Pseudomonas aeruginosa; CF Pseudomonas isolate NB8): 0.5 µg/mL (≈ 1.38 µM)
- MIC (Pseudomonas aeruginosa; CF Pseudomonas isolate NB8): 0.5 µg/mL (≈ 1.38 µM)
- MBC (Pseudomonas aeruginosa; CF Pseudomonas isolate NB9): 0.5 µg/mL (≈ 1.38 µM)
- MIC (Pseudomonas aeruginosa; CF Pseudomonas isolate NB9): 0.5 µg/mL (≈ 1.38 µM)
- MBC (Pseudomonas aeruginosa; CF Pseudomonas isolate NB10): 0.5 µg/mL (≈ 1.38 µM)
- MIC (Pseudomonas aeruginosa; CF Pseudomonas isolate NB10): 0.5 µg/mL (≈ 1.38 µM)
- MBC (Pseudomonas aeruginosa; CF Pseudomonas isolate NB11): 16 µg/mL (≈ 44.3 µM)
- MIC (Pseudomonas aeruginosa; CF Pseudomonas isolate NB11): 8 µg/mL (≈ 22.1 µM)
- MBC (Pseudomonas aeruginosa; CF Pseudomonas isolate NB12): 1 µg/mL (≈ 2.77 µM)
- MIC (Pseudomonas aeruginosa; CF Pseudomonas isolate NB12): 0.25 µg/mL (≈ 0.692 µM)
- MBC (Pseudomonas aeruginosa; CF Pseudomonas isolate NB13): 2 µg/mL (≈ 5.53 µM)
- MIC (Pseudomonas aeruginosa; CF Pseudomonas isolate NB13): 0.5 µg/mL (≈ 1.38 µM)
- MBC (Pseudomonas aeruginosa; CF Pseudomonas isolate NB14): > 16 µg/mL
- MIC (Pseudomonas aeruginosa; CF Pseudomonas isolate NB14): 16 µg/mL (≈ 44.3 µM)
- MBC (Pseudomonas aeruginosa; CF Pseudomonas isolate NB15): 4 µg/mL (≈ 11.1 µM)
- MIC (Pseudomonas aeruginosa; CF Pseudomonas isolate NB15): 2 µg/mL (≈ 5.53 µM)
- MBC (Pseudomonas aeruginosa; CF Pseudomonas isolate NB16): 8 µg/mL (≈ 22.1 µM)
- MIC (Pseudomonas aeruginosa; CF Pseudomonas isolate NB16): 2 µg/mL (≈ 5.53 µM)
- MBC (Pseudomonas aeruginosa; CF Pseudomonas isolate NB17): 16 µg/mL (≈ 44.3 µM)
- MIC (Pseudomonas aeruginosa; CF Pseudomonas isolate NB17): 16 µg/mL (≈ 44.3 µM)
- MBC (Pseudomonas aeruginosa; CF Pseudomonas isolate NB18): 8 µg/mL (≈ 22.1 µM)
- MIC (Pseudomonas aeruginosa; CF Pseudomonas isolate NB18): 4 µg/mL (≈ 11.1 µM)
- MBC (Pseudomonas aeruginosa; CF Pseudomonas isolate NB19): 4 µg/mL (≈ 11.1 µM)
- MIC (Pseudomonas aeruginosa; CF Pseudomonas isolate NB19): 2 µg/mL (≈ 5.53 µM)
- MBC (Pseudomonas aeruginosa; CF Pseudomonas isolate NB20): 1 µg/mL (≈ 2.77 µM)
- MIC (Pseudomonas aeruginosa; CF Pseudomonas isolate NB20): 0.5 µg/mL (≈ 1.38 µM)
- MBC (Pseudomonas aeruginosa; read-out: MBC 50, 20 CF Pseudomonas isolates): 1 µg/mL (≈ 2.77 µM)
- MBC (Pseudomonas aeruginosa; read-out: MBC 50, second MBC 50 line of the summary, Stenotrophomonas, values equal those of the CF Pseudomonas isolates): 1 µg/mL (≈ 2.77 µM)
- MBC (Pseudomonas aeruginosa; read-out: MBC 90, 20 CF Pseudomonas isolates): 16 µg/mL (≈ 44.3 µM)
- MBC (Pseudomonas aeruginosa; read-out: MBC 90, second MBC 90 line of the summary, Stenotrophomonas, values equal those of the CF Pseudomonas isolates): 16 µg/mL (≈ 44.3 µM)
- % resistant (Acinetobacter baumannii): 20.0%
- % susceptible (Acinetobacter baumannii): 80.0%
- MIC50 (Acinetobacter baumannii; [2]): 0.25 µg/mL
- % resistant [1]: 20.0%
- % susceptible [1]: 60.0%
- MIC50 [1, 2]: 0.5 µg/mL
- MIC Range ([1]; nanoemulsions in the presence of 5 mM EDTA, in µg/mL): 0.5-8
- MBC (Burkholderia cenocepacia; CF Burkholderia isolate NB21): 2 µg/mL (≈ 5.53 µM)
- MIC (Burkholderia cenocepacia; CF Burkholderia isolate NB21): 2 µg/mL (≈ 5.53 µM)
- MBC (Burkholderia cenocepacia; CF Burkholderia isolate NB22): 4 µg/mL (≈ 11.1 µM)
- MIC (Burkholderia cenocepacia; CF Burkholderia isolate NB22): 1 µg/mL (≈ 2.77 µM)
- MBC (Burkholderia cenocepacia; CF Burkholderia isolate NB23): > 16 µg/mL
- MIC (Burkholderia cenocepacia; CF Burkholderia isolate NB23): 8 µg/mL (≈ 22.1 µM)
- MBC (Burkholderia cenocepacia; CF Burkholderia isolate NB24): 16 µg/mL (≈ 44.3 µM)
- MIC (Burkholderia cenocepacia; CF Burkholderia isolate NB24): 8 µg/mL (≈ 22.1 µM)
- MBC (Burkholderia cenocepacia; CF Burkholderia isolate NB25): 8 µg/mL (≈ 22.1 µM)
- MIC (Burkholderia cenocepacia; CF Burkholderia isolate NB25): 4 µg/mL (≈ 11.1 µM)
- MBC (Burkholderia cenocepacia; CF Burkholderia isolate NB26): 8 µg/mL (≈ 22.1 µM)
- MIC (Burkholderia cenocepacia; CF Burkholderia isolate NB26): 8 µg/mL (≈ 22.1 µM)
- MBC (Burkholderia cenocepacia; CF Burkholderia isolate NB27): 8 µg/mL (≈ 22.1 µM)
- MIC (Burkholderia cenocepacia; CF Burkholderia isolate NB27): 4 µg/mL (≈ 11.1 µM)
- MBC (Burkholderia cenocepacia; CF Burkholderia isolate NB28b): 2 µg/mL (≈ 5.53 µM)
- MIC (Burkholderia cenocepacia; CF Burkholderia isolate NB28b): 1 µg/mL (≈ 2.77 µM)
- MBC (Burkholderia cenocepacia; CF Burkholderia isolate NB29): 4 µg/mL (≈ 11.1 µM)
